Test results taken from PubChem BioAssay (NCI).
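At the GI50, growth is halved. TGI: total growth inhibition.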

Assays:
Assay in all cases: growth of human tumour cells (NCI), 384-well format; in the data active = GI50 below about 0.43 µM; inactive = the rest
A549 NSCLC = test system: A549 NSCLC
MDA-MB-468 breast = test system: MDA-MB-468 breast
SNB-19 CNS = test system: SNB-19 CNS
HCT-15 colon = test system: HCT-15 colon
MCF7 breast = test system: MCF7 breast
SK-MEL-5 melanoma = test system: SK-MEL-5 melanoma
SNB-75 CNS = test system: SNB-75 CNS
786-0 renal = test system: 786-0 renal
SW-620 colon = test system: SW-620 colon
SR leukemia = test system: SR leukemia
SN12C renal = test system: SN12C renal
HS 578T breast = test system: HS 578T breast
NCI-H226 lung = test system: NCI-H226 lung
COLO 205 colon = test system: COLO 205 colon
OVCAR-5 ovarian = test system: OVCAR-5 ovarian
CAKI-1 renal = test system: CAKI-1 renal
MALME-3M melanoma = test system: MALME-3M melanoma
HOP-62 NSCLC = test system: HOP-62 NSCLC
OVCAR-3 ovarian = test system: OVCAR-3 ovarian
RXF 393 renal = test system: RXF 393 renal
NCI-H460 NSCLC = test system: NCI-H460 NSCLC
NCI-H23 lung = test system: NCI-H23 lung
A498 renal = test system: A498 renal
HCT-116 colon = test system: HCT-116 colon
BT-549 breast = test system: BT-549 breast
DU-145 prostate = test system: DU-145 prostate
NCI-H322M lung = test system: NCI-H322M lung
HOP-92 NSCLC = test system: HOP-92 NSCLC
ACHN renal = test system: ACHN renal
CCRF-CEM leukemia = test system: CCRF-CEM leukemia
IGROV1 ovarian = test system: IGROV1 ovarian
SK-OV-3 ovarian = test system: SK-OV-3 ovarian
KM12 colon = test system: KM12 colon
UACC-62 melanoma = test system: UACC-62 melanoma
HT29 colon = test system: HT29 colon
T-47D breast = test system: T-47D breast
M14 melanoma = test system: M14 melanoma
SK-MEL-2 melanoma = test system: SK-MEL-2 melanoma
U251 glioblastoma = test system: U251 glioblastoma
LOX IMVI melanoma = test system: LOX IMVI melanoma
RPMI-8226 leukemia = test system: RPMI-8226 leukemia
UACC-257 melanoma = test system: UACC-257 melanoma
SF-268 CNS = test system: SF-268 CNS
SF-295 CNS = test system: SF-295 CNS
EKVX NSCLC = test system: EKVX NSCLC
UO-31 renal = test system: UO-31 renal
MDA-MB-231 breast = test system: MDA-MB-231 breast
MOLT-4 leukemia = test system: MOLT-4 leukemia
SF-539 CNS = test system: SF-539 CNS
NCI/ADR-RES ovarian = test system: NCI/ADR-RES ovarian
SK-MEL-28 melanoma = test system: SK-MEL-28 melanoma
NCI-H522 lung = test system: NCI-H522 lung
MDA-MB-435 melanoma = test system: MDA-MB-435 melanoma
PC-3 prostate = test system: PC-3 prostate
K-562 leukemia = test system: K-562 leukemia
HL-60(TB) leukemia = test system: HL-60(TB) leukemia
TK-10 renal = test system: TK-10 renal
OVCAR-4 ovarian = test system: OVCAR-4 ovarian

C[C@@H](Oc1ccc(Oc2cnc3ccc(Cl)cc3n2)cc1)C(=O)O
2.82 µM: TGI (MOLT-4 leukemia)
inactive: GI50 (A549 NSCLC) 42.6 µM | GI50 (MDA-MB-468 breast) 24.8 µM | GI50 (SNB-19 CNS) > 100 µM | GI50 (HCT-15 colon) 73.7 µM | GI50 (MCF7 breast) 22.5 µM | GI50 (SK-MEL-5 melanoma) 62.5 µM | GI50 (SNB-75 CNS) > 100 µM | GI50 ([…]-0 renal) > 100 µM | GI50 (SW-620 colon) 43.4 µM | GI50 (SR leukemia) 1.71 µM | GI50 (SN12C renal) > 100 µM | GI50 (HS 578T breast) > 100 µM | GI50 (NCI-H226 lung) > 100 µM | GI50 (COLO 205 colon) 28.6 µM | GI50 (OVCAR-5 ovarian) > 100 µM | GI50 (CAKI-1 renal) 85.3 µM | GI50 (MALME-3M melanoma) > 100 µM | GI50 (HOP-62 NSCLC) 43.3 µM | GI50 (OVCAR-3 ovarian) > 100 µM | GI50 (RXF 393 renal) 97.5 µM | GI50 (NCI-H460 NSCLC) 6.16 µM | GI50 (NCI-H23 lung) > 100 µM | GI50 (A498 renal) 86.9 µM | GI50 (HCT-116 colon) 77.4 µM | GI50 (BT-549 breast) 58.3 µM | GI50 (DU-145 prostate) 45.4 µM | GI50 (NCI-H322M lung) > 100 µM | GI50 (HOP-92 NSCLC) 96.4 µM | GI50 (ACHN renal) 32.1 µM | GI50 (CCRF-CEM leukemia) 3.68 µM | GI50 (IGROV1 ovarian) 73.1 µM | GI50 (SK-OV-3 ovarian) > 100 µM | GI50 (KM12 colon) > 100 µM | GI50 (UACC-62 melanoma) 36.5 µM | GI50 (HT29 colon) > 100 µM | GI50 (T-47D breast) > 100 µM | GI50 (M14 melanoma) > 100 µM | GI50 (SK-MEL-2 melanoma) > 100 µM | GI50 (U251 glioblastoma) 63.9 µM | GI50 (LOX IMVI melanoma) > 100 µM | GI50 (RPMI-8226 leukemia) > 100 µM | GI50 (UACC-257 melanoma) > 100 µM | GI50 (SF-268 CNS) > 100 µM | GI50 (SF-295 CNS) 33.2 µM | GI50 (EKVX NSCLC) > 100 µM | GI50 (UO-31 renal) 87.1 µM | GI50 (MDA-MB-231 breast) > 100 µM | GI50 (MOLT-4 leukemia) 1.46 µM | GI50 (SF-539 CNS) 97.1 µM | GI50 (NCI/ADR-RES ovarian) 78.3 µM | GI50 (SK-MEL-28 melanoma) > 100 µM | GI50 (NCI-H522 lung) 25.9 µM | GI50 (MDA-MB-435 melanoma) > 100 µM | GI50 (PC-3 prostate) > 100 µM | GI50 (K-562 leukemia) 53.3 µM | GI50 (HL-60(TB) leukemia) 4.5 µM | GI50 (TK-10 renal) 61.4 µM | GI50 (OVCAR-4 ovarian) > 100 µM
4.65 µM: TGI (SR leukemia)
26.1 µM: TGI (HL-60(TB) leukemia)
> 100 µM: TGI (A549 NSCLC) | TGI (MDA-MB-468 breast) | TGI (SNB-19 CNS) | TGI (HCT-15 colon) | TGI (MCF7 breast) | TGI (SK-MEL-5 melanoma) | TGI (SNB-75 CNS) | TGI (786-0 renal) | TGI (SW-620 colon) | TGI (SN12C renal) | TGI (HS 578T breast) | TGI (NCI-H226 lung) | TGI (COLO 205 colon) | TGI (OVCAR-5 ovarian) | TGI (CAKI-1 renal) | TGI (MALME-3M melanoma) | TGI (HOP-62 NSCLC) | TGI (OVCAR-3 ovarian) | TGI (RXF 393 renal) | TGI (NCI-H460 NSCLC) | TGI (NCI-H23 lung) | TGI (A498 renal) | TGI (HCT-116 colon) | TGI (BT-549 breast) | TGI (DU-145 prostate) | TGI (NCI-H322M lung) | TGI (HOP-92 NSCLC) | TGI (ACHN renal) | TGI (CCRF-CEM leukemia) | TGI (IGROV1 ovarian) | TGI (SK-OV-3 ovarian) | TGI (KM12 colon) | TGI (UACC-62 melanoma) | TGI (HT29 colon) | TGI (T-47D breast) | TGI (M14 melanoma) | TGI (SK-MEL-2 melanoma) | TGI (U251 glioblastoma) | TGI (LOX IMVI melanoma) | TGI (RPMI-8226 leukemia) | TGI (UACC-257 melanoma) | TGI (SF-268 CNS) | TGI (SF-295 CNS) | TGI (EKVX NSCLC) | TGI (UO-31 renal) | TGI (MDA-MB-231 breast) | TGI (SF-539 CNS) | TGI (NCI/ADR-RES ovarian) | TGI (SK-MEL-28 melanoma) | TGI (NCI-H522 lung) | TGI (MDA-MB-435 melanoma) | TGI (PC-3 prostate) | TGI (K-562 leukemia) | TGI (TK-10 renal) | TGI (OVCAR-4 ovarian)
